From PubChem BioAssay (NCI)
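1) Cells in 96-well plates. 2) Compound, 48 h, 5 concentrations. 3) Linear interpolation between surrounding doses. 4) Unreached endpoint = highest concentration. GI50 = concentration required for 50% inhibition of growth. At the TGI there is no net growth.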

Assays:
Test in all cases: growth of human tumour cells (NCI), 48 h
786-0 renal = system: 786-0 renal
A498 renal = system: A498 renal
A549 NSCLC = system: A549 NSCLC
CCRF-CEM leukemia = system: CCRF-CEM leukemia
COLO 205 colon = system: COLO 205 colon
DU-145 prostate = system: DU-145 prostate
EKVX NSCLC = system: EKVX NSCLC
HCC-2998 colon = system: HCC-2998 colon
HCT-116 colon = system: HCT-116 colon
HCT-15 colon = system: HCT-15 colon
HL-60(TB) leukemia = system: HL-60(TB) leukemia
HOP-62 NSCLC = system: HOP-62 NSCLC
HOP-92 NSCLC = system: HOP-92 NSCLC
HS 578T breast = system: HS 578T breast
HT29 colon = system: HT29 colon
IGROV1 ovarian = system: IGROV1 ovarian
KM12 colon = system: KM12 colon
LOX IMVI melanoma = system: LOX IMVI melanoma
M14 melanoma = system: M14 melanoma
MALME-3M melanoma = system: MALME-3M melanoma
MCF7 breast = system: MCF7 breast
MDA-MB-231 breast = system: MDA-MB-231 breast
NCI-H226 lung = system: NCI-H226 lung
NCI-H23 lung = system: NCI-H23 lung
NCI-H460 lung = system: NCI-H460 lung
NCI-H522 lung = system: NCI-H522 lung
NCI/ADR-RES ovarian = system: NCI/ADR-RES ovarian
OVCAR-3 ovarian = system: OVCAR-3 ovarian
OVCAR-5 ovarian = system: OVCAR-5 ovarian
OVCAR-8 ovarian = system: OVCAR-8 ovarian
PC-3 prostate = system: PC-3 prostate
RXF 393 renal = system: RXF 393 renal
SF-268 CNS = system: SF-268 CNS
SF-295 CNS = system: SF-295 CNS
SF-539 CNS = system: SF-539 CNS
SK-MEL-28 melanoma = system: SK-MEL-28 melanoma
SK-MEL-5 melanoma = system: SK-MEL-5 melanoma
SK-OV-3 ovarian = system: SK-OV-3 ovarian
SN12C renal = system: SN12C renal
SNB-19 CNS = system: SNB-19 CNS
SNB-75 CNS = system: SNB-75 CNS
SW-620 colon = system: SW-620 colon
T-47D breast = system: T-47D breast
TK-10 renal = system: TK-10 renal
U251 CNS = system: U251 CNS
UACC-257 melanoma = system: UACC-257 melanoma
UACC-62 melanoma = system: UACC-62 melanoma
UO-31 renal = system: UO-31 renal

In the case of `C=C(C)[C@@H]1CC[C@]2(C(=O)n3ccnc3)CC[C@]3(C)[C@H](CC[C@@H]4[C@@]5(C)CCCNC(C)(C)[C@@H]5CC[C@]43C)[C@@H]12`, the GI50 (786-0 renal) is reported as 1.45 µM, the TGI (786-0 renal) is reported as 2.96 µM and the GI50 (A498 renal) is reported as 10.4 µM. The TGI (A498 renal) was 29.8 µM, the GI50 (A549 NSCLC) was 1.94 µM and the TGI (A549 NSCLC) was 3.62 µM. For the same molecule, the GI50 (CCRF-CEM leukemia) was 1.88 µM, the TGI (CCRF-CEM leukemia) was 4.48 µM and the GI50 (COLO 205 colon) was 1.52 µM. For the same molecule, the TGI (COLO 205 colon) was 3.25 µM, the GI50 (DU-145 prostate) was 1.78 µM and the TGI (DU-145 prostate) was 3.61 µM. It also gave a GI50 (EKVX NSCLC) of 1.74 µM, a TGI (EKVX NSCLC) of 4.1 µM and a GI50 (HCC-2998 colon) of 1.64 µM. The TGI (HCC-2998 colon) was 3.2 µM, the GI50 (HCT-116 colon) was 1.03 µM and the TGI (HCT-116 colon) was 2.25 µM. For the same molecule, the GI50 (HCT-15 colon) was 1.26 µM, the TGI (HCT-15 colon) was 2.64 µM and the GI50 (HL-60(TB) leukemia) was 1.55 µM. It also gave a TGI (HL-60(TB) leukemia) of 3.47 µM, a GI50 (HOP-62 NSCLC) of 1.75 µM and a TGI (HOP-62 NSCLC) of 3.31 µM. For the same molecule, the GI50 (HOP-92 NSCLC) was 1.49 µM, the TGI (HOP-92 NSCLC) was 2.96 µM and the GI50 (HS 578T breast) was 2.08 µM. For the same molecule, the TGI (HS 578T breast) was 5.08 µM, the GI50 (HT29 colon) was 0.785 µM and the TGI (HT29 colon) was 2.17 µM. For the same molecule, the GI50 (IGROV1 ovarian) was 1.58 µM, the TGI (IGROV1 ovarian) was 3.27 µM and the GI50 (KM12 colon) was 1.68 µM. It also gave a TGI (KM12 colon) of 3.11 µM, a GI50 (LOX IMVI melanoma) of 1.62 µM and a TGI (LOX IMVI melanoma) of 3.05 µM. For the same molecule, the GI50 (M14 melanoma) was 1.6 µM, the TGI (M14 melanoma) was 3.1 µM and the GI50 (MALME-3M melanoma) was 1.31 µM. For the same molecule, the TGI (MALME-3M melanoma) was 2.86 µM, the GI50 (MCF7 breast) was 1.5 µM and the TGI (MCF7 breast) was 3.23 µM. It also gave a GI50 (MDA-MB-231 breast) of 1.78 µM, a TGI (MDA-MB-231 breast) of 3.3 µM and a GI50 (NCI-H226 lung) of 2.23 µM. The TGI (NCI-H226 lung) was 4.8 µM, the GI50 (NCI-H23 lung) was 1.78 µM and the TGI (NCI-H23 lung) was 3.89 µM. It also gave a GI50 (NCI-H460 lung) of 1.76 µM, a TGI (NCI-H460 lung) of 3.4 µM and a GI50 (NCI-H522 lung) of 1.91 µM. It also gave a TGI (NCI-H522 lung) of 3.71 µM, a GI50 (NCI/ADR-RES ovarian) of 1.7 µM and a TGI (NCI/ADR-RES ovarian) of 3.66 µM. It also gave a GI50 (OVCAR-3 ovarian) of 1.67 µM, a TGI (OVCAR-3 ovarian) of 3.14 µM and a GI50 (OVCAR-5 ovarian) of 2.25 µM. For the same molecule, the TGI (OVCAR-5 ovarian) was 6.4 µM, the GI50 (OVCAR-8 ovarian) was 2.07 µM and the TGI (OVCAR-8 ovarian) was 3.88 µM. For the same molecule, the GI50 (PC-3 prostate) was 1.29 µM, the TGI (PC-3 prostate) was 2.67 µM and the GI50 (RXF 393 renal) was 1.5 µM. The TGI (RXF 393 renal) was 2.92 µM, the GI50 (SF-268 CNS) was 2.77 µM and the TGI (SF-268 CNS) was 9.21 µM. The GI50 (SF-295 CNS) was 1.69 µM, the TGI (SF-295 CNS) was 3.24 µM and the GI50 (SF-539 CNS) was 1.58 µM. The TGI (SF-539 CNS) was 3.03 µM, the GI50 (SK-MEL-28 melanoma) was 1.61 µM and the TGI (SK-MEL-28 melanoma) was 3.1 µM. For the same molecule, the GI50 (SK-MEL-5 melanoma) was 1.56 µM, the TGI (SK-MEL-5 melanoma) was 2.9 µM and the GI50 (SK-OV-3 ovarian) was 3.72 µM. For the same molecule, the TGI (SK-OV-3 ovarian) was 16.2 µM, the GI50 (SN12C renal) was 1.7 µM and the TGI (SN12C renal) was 3.24 µM. The GI50 (SNB-19 CNS) was 2.54 µM, the TGI (SNB-19 CNS) was 6.12 µM and the GI50 (SNB-75 CNS) was 2.48 µM. The TGI (SNB-75 CNS) was 10.1 µM, the GI50 (SW-620 colon) was 1.68 µM and the TGI (SW-620 colon) was 3.39 µM. The GI50 (T-47D breast) was 1.53 µM, the TGI (T-47D breast) was 3.54 µM and the GI50 (TK-10 renal) was 2.58 µM. It also gave a TGI (TK-10 renal) of 6.82 µM, a GI50 (U251 CNS) of 1.7 µM and a TGI (U251 CNS) of 3.14 µM. For the same molecule, the GI50 (UACC-257 melanoma) was 2.02 µM, the TGI (UACC-257 melanoma) was 4.09 µM and the GI50 (UACC-62 melanoma) was 1.6 µM. The TGI (UACC-62 melanoma) was 3.06 µM, the GI50 (UO-31 renal) was 1.38 µM and the TGI (UO-31 renal) was 2.72 µM.
